Each structure is given as a SMILES string.

The target of this experiment is T1, human PAH with the R408W mutation (Homo sapiens, UniProt P00439, R408W).
T1 construct: expressed in transfected cells
T1 sequence (P00439 1-452 R408W): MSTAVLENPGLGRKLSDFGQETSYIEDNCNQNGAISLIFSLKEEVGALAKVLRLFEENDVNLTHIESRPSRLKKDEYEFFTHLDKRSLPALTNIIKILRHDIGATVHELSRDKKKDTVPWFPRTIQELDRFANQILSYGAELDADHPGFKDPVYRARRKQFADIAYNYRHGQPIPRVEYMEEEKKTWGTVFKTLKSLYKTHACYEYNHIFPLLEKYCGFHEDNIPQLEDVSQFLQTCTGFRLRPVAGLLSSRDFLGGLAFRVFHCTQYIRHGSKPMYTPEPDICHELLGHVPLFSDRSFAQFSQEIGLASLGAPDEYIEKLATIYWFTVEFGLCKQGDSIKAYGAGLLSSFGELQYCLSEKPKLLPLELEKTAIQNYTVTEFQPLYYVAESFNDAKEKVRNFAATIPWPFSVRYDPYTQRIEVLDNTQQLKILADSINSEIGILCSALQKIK
Briefly: Cell Based Phenylalanine Flux Assay.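 Further: Ten-point dose curve from 2-fold serial dilutions, run in duplicate at 0.5% DMSO final, tracer step used 20 µM sepiapterin and 800 µM labeled phenylalanine.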 The conditions noted are these: A375 cells expressing human R408W PAH; 24 hrs compound incubation; 13C-Tyrosine by LC-MS; average where tested multiple times; read-out: AC50.
As for `CC(C)(F)c1nnc(C(=O)N2CCc3[nH]cnc3[C@H]2c2cc3cccc(Cl)n3n2)o1` [Example 969, (S)-(4-(7-chloropyrazolo [1,5-a]pyridin-2-yl)-6,7-dihydro-1H-imidazo[4,5-c]pyridin-5(4H)-yl)(5-(2-fluoropropan-2-yl)-1,3,4-oxadiazol-2-yl)methanone], the AC50 is less than 500 nM.

For the compound `O=C(c1nnc(-c2cnccn2)o1)N1CCc2[nH]cnc2[C@H]1c1cc2cccc(Cl)n2n1` [Example 979, (S)-(4-(7-chloropyrazolo [1,5-a]pyridin-2-yl)-6,7-dihydro-1H-imidazo[4,5-c]pyridin-5(4H)-yl)(5-(pyrazin-2-yl)-1,3,4-oxadiazol-2-yl)methanone], the AC50 is less than 500 nM.

For `O=C(c1nnc(-c2cnn(C(F)F)c2)o1)N1CCc2[nH]cnc2[C@H]1c1cc2cccc(F)n2n1` [Example 984, (S)-(5-(1-(difluoromethyl)-1H-pyrazol-4-yl)-1,3,4-oxadiazol-2-yl)(4-(7-fluoropyrazolo[1,5-a]pyridin-2-yl)-6,7-dihydro-1H-imidazo [4,5-c]pyridin-5(4H)-yl)methanone], the AC50 lay in the range of 500 to 1000 nM.

For the compound `Cc1cccn2nc([C@@H]3c4nc[nH]c4CCN3C(=O)c3nnc(C(C)(C)C)o3)cc12` [Example 1022, (S)-(5-(tert-butyl)-1,3,4-oxadiazol-2-yl)(4-(4-methylpyrazolo[1,5-a]pyridin-2-yl)-6,7-dihydro-1H-imidazo[4,5-c]pyridin-5(4H)-yl)methanone], the concentration at half-maximal activity (AC50) was less than 500 nM.

With `Cc1cccn2nc([C@H]3c4nc[nH]c4CCN3C(=O)c3nnc(C(C)(C)C)o3)cc12` [Example 1023, (R)-(5-(tert-butyl)-1,3,4-oxadiazol-2-yl)(4-(4-methylpyrazolo[1,5-a]pyridin-2-yl)-6,7-dihydro-1H-imidazo[4,5-c]pyridin-5(4H)-yl)methanone], the concentration at half-maximal activity (AC50) is more than 5000 nM.

For the compound `Cn1ccc(-c2nnc(C(=O)N3CCc4[nH]cnc4[C@@H]3c3cc4cccc(C(F)(F)F)n4n3)o2)n1` [Example 1031, (R)-(5-(1-methyl-1H-pyrazol-3-yl)-1,3,4-oxadiazol-2-yl)(4-(7-(trifluoromethyl)pyrazolo[1,5-a]pyridin-2-yl)-6,7-dihydro-1H-imidazo [4,5-c]pyridin-5(4H)-yl)methanone], the AC50 was more than 5000 nM.

Turning to `O=C(c1nnc(-c2ccccn2)o1)N1CCc2[nH]cnc2[C@@H]1c1cc2cccc(Cl)n2n1` [Example 1043, (R)-(4-(7-chloropyrazolo [1,5-a]pyridin-2-yl)-6,7-dihydro-1H-imidazo[4,5-c]pyridin-5(4H)-yl)(5-(pyridin-2-yl)-1,3,4-oxadiazol-2-yl) methanone], the concentration at half-maximal activity (AC50) was more than 5000 nM.

In the case of `Cn1ncnc1C(=O)N1CCc2[nH]cnc2[C@H]1c1cc2c(Cl)cccn2n1` [Example 1050, (S)-(4-(4-chloropyrazolo [1,5-a]pyridin-2-yl)-6,7-dihydro-1H-imidazo[4,5-c]pyridin-5(4H)-yl)(1-methyl-1H-1,2,4-triazol-5-yl)methanone], the concentration at half-maximal activity (AC50) is less than 500 nM.

Consider `Cc1cccn2nc([C@H]3c4nc[nH]c4CCN3C(=O)c3nc(C4CC4)nn3C)cc12` [Example 1059], for which the AC50 was more than 5000 nM.

As for `Cn1nc(C(F)(F)F)nc1C(=O)N1CCc2[nH]cnc2[C@H]1c1cc2c(C(F)(F)F)cccn2n1` [Example 1062, (S)-(1-methyl-3-(trifluoromethyl)-1H-1,2,4-triazol-5-yl)(4-(4-(trifluoromethyl)pyrazolo[1,5-a]pyridin-2-yl)-6,7-dihydro-1H-imidazo [4,5-c]pyridin-5(4H)-yl)methanone], the AC50 is less than 500 nM.

For `O=C(c1ccnn1C(F)F)N1CCc2[nH]cnc2[C@@H]1c1cc2cccc(Cl)n2n1` [Example 1065, (R)-(4-(7-chloropyrazolo [1,5-a]pyridin-2-yl)-6,7-dihydro-1H-imidazo[4,5-c]pyridin-5(4H)-yl)(1-(difluoromethyl)-1H-pyrazol-5-yl)methanone], the concentration at half-maximal activity (AC50) fell in the range of 1000 to 5000 nM.

Regarding `Cn1cc(-c2nnc(C(=O)N3CCc4[nH]cnc4[C@@H]3c3cc4cccc(Cl)n4n3)o2)cn1` [Example 1067, (R)-(4-(7-chloropyrazolo [1,5-a]pyridin-2-yl)-6,7-dihydro-1H-imidazo[4,5-c]pyridin-5(4H)-yl)(5-(1-methyl-1H-pyrazol-4-yl)-1,3,4-oxadiazol-2-yl)methanone], the AC50 was more than 5000 nM.

In the case of `Cn1nc(C2CC2)nc1C(=O)N1CCc2[nH]cnc2[C@@H]1c1cc2c(Cl)cccn2n1` [Example 1073, (R)-(4-(4-chloropyrazolo [1,5-a]pyridin-2-yl)-6,7-dihydro-1H-imidazo[4,5-c]pyridin-5(4H)-yl)(3-cyclopropyl-1-methyl-1H-1,2,4-triazol-5-yl)methanone], the AC50 lay in the range of 1000 to 5000 nM.

Turning to `Cc1nc(C(=O)N2CCc3[nH]cnc3[C@H]2c2cc3c(Cl)cccn3n2)n(C)n1` [Example 1074, (S)-(4-(4-chloropyrazolo [1,5-a]pyridin-2-yl)-6,7-dihydro-1H-imidazo[4,5-c]pyridin-5(4H)-yl)(1,3-dimethyl-1H-1,2,4-triazol-5-yl)methanone], the half-maximal activity concentration (AC50) was in the range of 500 to 1000 nM.

`O=C(c1ocnc1C(F)F)N1CCc2[nH]cnc2[C@H]1c1cc2ccc(C(F)(F)F)cn2n1` [Example 1104, (S)-(4-(difluoromethyl)oxazol-5-yl)(4-(6-(trifluoromethyl)pyrazolo [1,5-a]pyridin-2-yl)-6,7-dihydro-1H-imidazo[4,5-c]pyridin-5(4H)-yl)methanone]: the half-maximal activity concentration (AC50) is less than 500 nM.

Turning to `CC(C)(F)c1nnc(C(=O)N2CCc3[nH]cnc3[C@H]2c2cc3c(Cl)cccn3n2)o1` [Example 1109, (S)-(4-(4-chloropyrazolo [1,5-a]pyridin-2-yl)-6,7-dihydro-1H-imidazo[4,5-c]pyridin-5(4H)-yl)(5-(2-fluoropropan-2-yl)-1,3,4-oxadiazol-2-yl)methanone], the concentration at half-maximal activity (AC50) is less than 500 nM.

Take `Cc1ccc2cc([C@@H]3c4nc[nH]c4CCN3C(=O)c3nnc(C(C)(C)C)o3)nn2c1` [Example 1110, (S)-(5-(tert-butyl)-1,3,4-oxadiazol-2-yl)(4-(6-methylpyrazolo[1,5-a]pyridin-2-yl)-6,7-dihydro-1H-imidazo[4,5-c]pyridin-5(4H)-yl)methanone]: the AC50 lay in the range of 500 to 1000 nM.

In the case of `CC(C)(O)c1nc(C(F)F)c(C(=O)N2CCc3[nH]cnc3[C@H]2c2cc3ccc(C(F)(F)F)cn3n2)o1` [Example 1116, (S)-(4-(difluoromethyl)-2-(2-hydroxypropan-2-yl)oxazol-5-yl)(4-(6-(trifluoromethyl)pyrazolo[1,5-a]pyridin-2-yl)-6,7-dihydro-1H-imidazo [4,5-c]pyridin-5(4H)-yl)methanone], the AC50 was less than 500 nM.

As for `CC(C)(O)c1nc(C(F)F)c(C(=O)N2CCc3[nH]cnc3[C@@H]2c2cc3ccc(C(F)(F)F)cn3n2)o1` [Example 1117, (R)-(4-(difluoromethyl)-2-(2-hydroxypropan-2-yl)oxazol-5-yl)(4-(6-(trifluoromethyl)pyrazolo[1,5-a]pyridin-2-yl)-6,7-dihydro-1H-imidazo[4,5-c]pyridin-5(4H)-yl)methanone], the half-maximal activity concentration (AC50) was more than 5000 nM.

For the compound `O=C(c1nnc(-c2ccn(C(F)F)n2)o1)N1CCc2[nH]cnc2[C@H]1c1cc2c(Cl)cccn2n1` [Example 1118, (S)-(4-(4-chloropyrazolo [1,5-a]pyridin-2-yl)-6,7-dihydro-1H-imidazo[4,5-c]pyridin-5(4H)-yl)(5-(1-(difluoromethyl)-1H-pyrazol-3-yl)-1,3,4-oxadiazol-2-yl)methanone], the AC50 is less than 500 nM.

`CC(C)(C)c1nnc(C(=O)N2CCc3[nH]cnc3[C@@H]2c2cc3ccc(F)cn3n2)o1` [Example 1125, (R)-(5-(tert-butyl)-1,3,4-oxadiazol-2-yl)(4-(6-fluoropyrazolo[1,5-a]pyridin-2-yl)-6,7-dihydro-1H-imidazo[4,5-c]pyridin-5(4H)-yl)methanone]: the AC50 lay within 1000 to 5000 nM.

In the case of `Cn1nc(C(F)F)nc1C(=O)N1CCc2[nH]cnc2[C@@H]1c1cc2ccc(C(F)(F)F)cn2n1` [Example 1127, (R)-(3-(difluoromethyl)-1-methyl-1H-1,2,4-triazol-5-yl)(4-(6-(trifluoromethyl)pyrazolo[1,5-a]pyridin-2-yl)-6,7-dihydro-1H-imidazo [4,5-c]pyridin-5(4H)-yl)methanone], the half-maximal activity concentration (AC50) was in the range of 1000 to 5000 nM.

Regarding `O=C(c1ccnn1C(F)F)N1CCc2[nH]cnc2[C@@H]1c1cc2cc(C(F)(F)F)ccn2n1` [Example 1133, (R)-(1-(difluoromethyl)-1H-pyrazol-5-yl)(4-(5-(trifluoromethyl)pyrazolo [1,5-a]pyridin-2-yl)-6,7-dihydro-1H-imidazo[4,5-c]pyridin-5(4H)-yl)methanone], the concentration at half-maximal activity (AC50) lay in the range of 1000 to 5000 nM.

On to `O=C(c1nnc(C2CC2)o1)N1CCc2[nH]cnc2[C@@H]1c1cc2cccc(Cl)n2n1` [Example 1136, (R)-(4-(7-chloropyrazolo [1,5-a]pyridin-2-yl)-6,7-dihydro-1H-imidazo[4,5-c]pyridin-5(4H)-yl)(5-cyclopropyl-1,3,4-oxadiazol-2-yl)methanone], for which the AC50 lay in the range of 1000 to 5000 nM.

Take `O=C(c1nnc(C2CC2)o1)N1CCc2[nH]cnc2[C@H]1c1cc2cccc(Cl)n2n1` [Example 1137]: the AC50 is 500 to 1000 nM.

As to `O=C(c1ccnn1C(F)F)N1CCc2[nH]cnc2[C@@H]1c1cc2ccc(C(F)(F)F)cn2n1` [Example 1139, (R)-(1-(difluoromethyl)-1H-pyrazol-5-yl)(4-(6-(trifluoromethyl)pyrazolo [1,5-a]pyridin-2-yl)-6,7-dihydro-1H-imidazo[4,5-c]pyridin-5(4H)-yl)methanone], the AC50 was 1000 to 5000 nM.
